According to article PMC8066339, “Optimization of 2-Acylaminocycloalkylthiophene Derivatives for Activity against Staphylococcus aureus RnpA” (Antibiotics, 2021):
Where “and” joins values, the source holds several entries; their conditions need not be identical. Equal entries are not always repeated. Entries after “also recorded” stand apart in the source; their conditions may differ. Where two headings read alike, the source gives them in different places.

Key:
MTT cytotoxicity testing = conditions: human, HEP G2 cells (human liver epithelial cells)
Experimental: For the scaffold to have translational significance, it must be non-toxic to human cells. Accordingly, an initial assessment of toxicity was performed using human liver epithelial (HEP G2) cells via a 3-(4,5-dimethylthiazol-2-yl)-2,5-diphenyltetrazolium bromide (MTT) assay in the presence of up to 400 µM of each analog. […] Viability of 70% was used as the cut-off criteria for toxicity (Figure 4, dashed line), according to ISO guidelines, as described in Materials and Methods.
Human liver epithelial cells (HEP G2) were cultured in Dulbecco’s Modified Eagle Medium (DMEM; Fisher Scientific, Hampton, NH) supplemented with 10% heat inactivated fetal bovine serum (FBS; Corning Life Sciences) and 1% penicillin/streptomycin (Thermofisher Scientific). Cells were incubated at 37 °C with 5% CO2 in Nunc (Roskilde, Denmark) tissue culture flasks. Cells were grown in monolayers until exceeding 70% confluency, removed with 0.25% trypsin (Fisher Scientific), resuspended in fresh medium, and used to seed approximately 2.5 × 10^5 cells/mL into each well of a 96 well tissue culture microplate (Nunc) containing 200 µL of fresh medium. Cytotoxicity testing was conducted according to the guidelines of the International Organization for Standardization (ISO) 10993-5:2009. After 24 h of incubation, the cell media was removed, and adherent cells were washed with 1× phosphate buffered saline (PBS). Cell media was supplemented with 5% per volume of compound at final concentrations from 12.5 µM to 400 µM and incubated 20–24 h at 37 °C with 5% CO2. After incubation, medium supplemented with compound was removed from the wells and replaced with 100 µL of fresh culture medium. Then, 10 µL of 12 mM (3-(4,5-dimethylthiazol-2-yl)-2,5-diphenyltetrazolium bromide (MTT) stock reagent (CyQUANT MTT cell proliferation kit; Thermofisher Scientific) was added to each well. After labeling the cells with the MTT reagent, all but 25 µL of medium was removed from the wells, and 50 µL of DMSO was added to each well and mixed thoroughly and cells were incubated at 37 °C with 5% CO2 for 10 min. After incubation, wells were mixed again and using a SPECTRAmax5 microplate reader, absorbance was read at 540 nm. Cells were treated with 125 µg/mL mitomycin C (Fisher Scientific) to serve as a positive control and 2% DMSO as a negative control. […] All compounds were tested in two independent experiments in triplicate and cell viability was expressed as a percent of the negative control.

S. aureus = tested on: S. aureus; design: method as in PMID 21347352, PMID 25605356, PMID 31035380; conditions: previously reported, Figure 1; cited from earlier work
S. aureus strain UAMS-1 [1] = tested on: S. aureus strain UAMS-1; design: method as in Colquhoun et al. [34]; conditions: ref Colquhoun et al. [34]; cited from earlier work
S. aureus UAMS-1 = assay: Fractional inhibitory concentration (FIC) testing with mupirocin; format: cell-based, Staphylococcus aureus; conditions: Staphylococcus aureus
Experimental: Fractional inhibitory concentration (FIC) testing was performed, as previously described. Briefly, each well of a 96-well microtiter plate was inoculated with 10^4 CFU of S. aureus UAMS-1 [42]. Each row of the plate was supplemented with two-fold increasing concentrations of mupirocin (0 µg mL^−1 to 2 µg mL^−1) whereas each column contained two-fold increasing concentrations of putative RnpA inhibitor compound (0.03, 0.0625, 0.125, 0.25, 0.5, 1, or 2× MIC). […] The FIC index was defined by the following formula: FIC = (MIC of Drug A in Combination/MIC of Drug A Alone) + (MIC of Drug B in Combination/MIC of Drug B Alone). A synergistic interaction was defined as a FIC value of ≤0.5, an additive interaction as 0.5–1, no interaction as 1–4 and antagonistic interaction as FIC ≥ 4, as described.

S. aureus strain UAMS-1 [2] = assay: Minimum inhibitory concentration (MIC) testing, CLSI broth microdilution; format: cell-based, Staphylococcus aureus; conditions: Staphylococcus aureus, UAMS1
Experimental: Staphylococcus aureus strains UAMS-1 is a well-characterized antibiotic susceptible osteomyelitis clinical isolate (Blevins Infect. Immun 2003). For experiments, UAMS-1 was cultured in Mueller Hinton (MH) broth and processed as described below. Escherichia coli strain BL21 (DE3) was cultured in Luria–Bertani (LB) and supplemented with ampicillin (50 µg ml^−1) where indicated.
Minimum inhibitory concentration (MIC) was performed according to the Clinical and Laboratory Standards Institute (CLSI) guidelines. Briefly, individual wells of a 96-well microtiter plate were inoculated with 10^4 colony forming units (CFU) of S. aureus UAMS-1 containing two-fold increasing concentrations (0 µM to 100 µM) of the indicated antibiotic or putative RnpA inhibitor and grown at 37 °C for 16 h in MH broth. The MIC was defined as the lowest concentration of compound in which there was no visible bacterial growth detected by the unaided eye.

S. aureus RnpA = biological target: T1, S. aureus RnpA (Staphylococcus aureus, UniProt P0A0H5); assay: In vitro RnpA mRNA degradation assay (RNase Alert FRET substrate); format: biochemical
T1 construct: made in house; host or cells: E. coli BL21 (DE3)
T1 sequence (P0A0H5 1-117): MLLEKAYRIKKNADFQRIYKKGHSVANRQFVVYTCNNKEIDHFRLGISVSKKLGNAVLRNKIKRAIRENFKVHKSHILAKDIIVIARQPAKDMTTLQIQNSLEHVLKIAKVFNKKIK
Experimental: (§1) His-tagged RnpA was purified as previously described. E. coli BL21 (DE3) cells harboring plasmid pEXP5-nt containing a hexahistidine tag fused to the N-terminus of S.aureus RnpA coding region were grown in LB supplemented with 50 µg mL^−1 ampicillin to OD600 = 0.6 and induced with 1mM isopropyl β-D-1-thiogalactopyranoside (IPTG) for three hours to induce protein expression. […] Cells were mechanically lysed by three passes at 18,000 psi through a French Pressure Cell Press (SLM-Aminco; Pittsford, NY, USA) and cell debris was removed by centrifugation at 17,000× g for 10 min at 4 °C. Supernatants were collected, filtered through a 0.2 micron syringe filter, then loaded onto a 5 mL HisPur cobalt column (ThermoFisher Scientific, Waltham, MA, U.S.A.) using the BioRad Maximizer Duo-Flow Medium Pressure Chromatography System. Protein was eluted using an imidazole gradient (80 mM to 500 mM). Fractions were assessed for RnpA presence and purity via SDS-PAGE analysis, Coomassie staining and Western blotting using an anti-His antibody (Invitrogen; Grand Island, NY, USA).
RnpA-mediated degradation was assessed using the Rnase Alert QC System (Thermofisher Scientific). 20 pmol of His-RnpA was combined with 0.4 μM (final concentration) FRET substrate and either DMSO (negative control) or compound ≤500 µM in 1× Rnase Alert Buffer. Reactions were assembled in 96-well PCR plates (BioRad) and incubated at 37 °C for 30 min in the BioRad CFX 96 Connect Real Time instrument, measuring fluorescence every 2 min at 490 nm excitation/520 nm emission. Percent inhibition of each compound was calculated at the 30 min time-point based on the following formula: (RFU of compound treated RnpA/RFU of DMSO-treated RnpA) × 100.

RNase P (RnpA + rnpB) = biological target: T2, RNase P (RnpA + rnpB) (Staphylococcus aureus, UniProt P0A0H5); assay: In vitro ptRNA^Tyr processing assay with reconstituted RNase P; format: biochemical; conditions: for IC50: average of at least two tests
T2 construct: made in house; host or cells: E. coli BL21 (DE3)
T2 sequence (P0A0H5 1-117): T1 sequence (P0A0H5 1-117)
Experimental: as §1
rnpB and RNA substrates (spa, ptRNA^Tyr) for RnpA functional assays, as well as mature tRNA were synthesized in vitro, as previously described. Each gene was PCR amplified using S. aureus UAMS-1 chromosomal DNA as a template and the corresponding oligonucleotide primer pairs, in which the forward primers contained an RNA polymerase T7 promoter sequence. The following primer pairs were used in this study (T7 promoter underlined): T7-rnpB forward—[…] and rnpB reverse—[…]; T7-ptRNA^Tyr forward—[…] and ptRNA^Tyr reverse—TGGTGGAG GGGGGCAGATTC; T7-spa forward—[…] CGACGTCCAG and spa reverse—[…]. Resulting PCR products were analyzed on a 0.8% agarose gel and purified using the Qiagen QIAquick Gel Extraction kit, according to the manufacturer’s instructions. In vitro transcription was performed using the TranscriptAid T7 High Yield Transcription kit (Fermentas; Burlington, ON, Canada) following manufacturer’s instructions. Following in vitro transcription, the RNA was treated with DNase I for 90 min and re-purified using the Qiagen RNeasy Mini kit. RNA was quantified using a NanoDrop2000 spectrophotometer.
S.aureus Rnase P activity assays were performed as previously described. Briefly, ptRNA^Tyr and rnpB RNA was denatured by heating to 95 °C for 5 min then slow cooled to room temperature. RNA species were then combined with 2× low salt buffer (50 mM Tris-HCl pH 8.0, 5 mM MgCl2) and incubated for 5 min at 37 °C. Rnase P was reconstituted by mixing an equal molar ratio of His-RnpA and rnpB for 15 min at 37 °C. […] Then, 5 pmol ptRNA^Tyr was added to each reaction and incubated for an additional 30 min at 37 °C. Reactions were stopped with 2× RNA loading dye (Thermo Scientific) and heating to 65 °C for 10 min. Samples were electrophoresed on a 7M urea/8% polyacrylamide gel then stained with 0.5 µg mL^−1 ethidium bromide. The BioRad EZ Gel Doc imaging system was used to visualize the RNA and relative abundance of mature tRNA^Tyr in the DMSO control or in the samples containing compound and analyzed using BioRad Image Lab densitometry software. The percent inhibitory activity of each compound was calculated using the following equation: (% experimental processing/% processing negative control) × 100.

For `CO[C@@]12[C@H](COC(N)=O)C3=C(C(=O)C(C)=C(N)C3=O)N1C[C@@H]1N[C@@H]12` [Mitomycin C, reference compound], the viability at 400 µM (MTT cytotoxicity testing) was 54.8%.
In the case of `O=C(Nc1ccc(Cl)cc1)c1c(NC(=O)C(F)(F)F)sc2c1CCCCC2` [JR1], the “S. aureus MIC” value (S. aureus) is listed as 1.25 µM and the MIC (S. aureus strain UAMS-1 [1]) is listed as 1.25 µM and 0.52 µg/mL.
For `Cc1cc(/C=C(/C#N)C(=O)Nc2cccc(Br)c2)c(C)n1-c1ccc(C(=O)O)cc1` [RNP1000], the “S. aureus MIC” value (S. aureus) is given as 34 to 69 µM.
`C/C(=C\C(=O)OCCCCCCCCC(=O)O)C[C@@H]1OC[C@H](C[C@@H]2O[C@H]2[C@@H](C)[C@H](C)O)[C@@H](O)[C@H]1O` [Mup, mupirocin, reference compound] gave an MIC (S. aureus UAMS-1; UAMS1, mupirocin alone, read-out: Mup MIC, Dosed-Individually) of 0.5 µM.
For `O=C(CF)Nc1sc2c(c1C(=O)Nc1cccc(Cl)c1)CCCCC2` [RNP0018], the MIC (S. aureus strain UAMS-1 [2]) was over 200 µg/mL, the IC50 (S. aureus RnpA) was 33 µM and the “Inhibition of in vitro RnpA-mediated RNA degradation (in words)” value (S. aureus RnpA) was “good inhibitory properties; also recorded: exhibited inhibitory activity”. For the same compound, the MIC (S. aureus UAMS-1; UAMS1, read-out: Cpd MIC, Dosed-Individually) was over 500 µM, the “Inhibition of in vitro RnpA ptRNA processing (in words)” value (RNase P (RnpA + rnpB)) was “good inhibitory properties” and the IC50 (RNase P (RnpA + rnpB); ptRNA IC50, in vitro ptRNA^Tyr processing) was 58 µM.
For `CC1CCN(C(=O)Nc2cc(Cl)cc(Cl)c2)CC1` [JC1], the “S. aureus MIC” value (S. aureus) is listed as 3.4 µM.
In the case of `O=C(Nc1cccc(Cl)c1)c1c(NC(=O)C(F)F)sc2c1CCCCC2` [RNP0017], the MIC (S. aureus strain UAMS-1 [2]; S. aureus strain UAMS-1, read-out: MIC) is reported as over 200 µg/mL, the “Inhibition of in vitro RnpA-mediated RNA degradation (in words)” value (S. aureus RnpA) is reported as “exhibited inhibitory activity” and the IC50 (S. aureus RnpA; in vitro RnpA-mediated RNA degradation, read-out: mRNA IC50) is reported as 43 µM. For the same compound, the MIC (S. aureus UAMS-1; UAMS1, compound alone, read-out: Cpd MIC, Dosed-Individually) was over 500 µM, the “Inhibition of in vitro RnpA ptRNA processing (in words)” value (RNase P (RnpA + rnpB)) was “did not appear to display any inhibition; also recorded: weak or no inhibitory activity” and the IC50 (RNase P (RnpA + rnpB); in vitro ptRNA^Tyr processing, read-out: ptRNA IC50) was over 250 µM.
